Results as given in ChEMBL document CHEMBL1139078, “ortho-Substituted azoles as selective and dual inhibitors of VEGF receptors 1 and 2” (Bioorg Med Chem Lett, 2007).
pIC50, pKi: −log10 of the molar value.

Experiments:
[1] = target: T1, Vascular endothelial growth factor receptor 2 (Homo sapiens, UniProt P35968); assay: Inhibition of VEGFR2 by HTRF assay
[2] = target: T1, Vascular endothelial growth factor receptor 2; assay: Inhibition of VEGFR2 by cell-based assay; format: functional
[3] = target: T1, Vascular endothelial growth factor receptor 2; assay: Inhibition of VEGFR2 by [32P]ATP-competitive radioassay
[4] = target: Vascular endothelial growth factor receptor 1 (Homo sapiens, UniProt P17948); assay: Inhibition of VEGFR1 by HTRF assay
[5] = Intrinsic permeability across Caco-2 cell monolayers; conditions: human

T1 sequence (P35968 whole entry): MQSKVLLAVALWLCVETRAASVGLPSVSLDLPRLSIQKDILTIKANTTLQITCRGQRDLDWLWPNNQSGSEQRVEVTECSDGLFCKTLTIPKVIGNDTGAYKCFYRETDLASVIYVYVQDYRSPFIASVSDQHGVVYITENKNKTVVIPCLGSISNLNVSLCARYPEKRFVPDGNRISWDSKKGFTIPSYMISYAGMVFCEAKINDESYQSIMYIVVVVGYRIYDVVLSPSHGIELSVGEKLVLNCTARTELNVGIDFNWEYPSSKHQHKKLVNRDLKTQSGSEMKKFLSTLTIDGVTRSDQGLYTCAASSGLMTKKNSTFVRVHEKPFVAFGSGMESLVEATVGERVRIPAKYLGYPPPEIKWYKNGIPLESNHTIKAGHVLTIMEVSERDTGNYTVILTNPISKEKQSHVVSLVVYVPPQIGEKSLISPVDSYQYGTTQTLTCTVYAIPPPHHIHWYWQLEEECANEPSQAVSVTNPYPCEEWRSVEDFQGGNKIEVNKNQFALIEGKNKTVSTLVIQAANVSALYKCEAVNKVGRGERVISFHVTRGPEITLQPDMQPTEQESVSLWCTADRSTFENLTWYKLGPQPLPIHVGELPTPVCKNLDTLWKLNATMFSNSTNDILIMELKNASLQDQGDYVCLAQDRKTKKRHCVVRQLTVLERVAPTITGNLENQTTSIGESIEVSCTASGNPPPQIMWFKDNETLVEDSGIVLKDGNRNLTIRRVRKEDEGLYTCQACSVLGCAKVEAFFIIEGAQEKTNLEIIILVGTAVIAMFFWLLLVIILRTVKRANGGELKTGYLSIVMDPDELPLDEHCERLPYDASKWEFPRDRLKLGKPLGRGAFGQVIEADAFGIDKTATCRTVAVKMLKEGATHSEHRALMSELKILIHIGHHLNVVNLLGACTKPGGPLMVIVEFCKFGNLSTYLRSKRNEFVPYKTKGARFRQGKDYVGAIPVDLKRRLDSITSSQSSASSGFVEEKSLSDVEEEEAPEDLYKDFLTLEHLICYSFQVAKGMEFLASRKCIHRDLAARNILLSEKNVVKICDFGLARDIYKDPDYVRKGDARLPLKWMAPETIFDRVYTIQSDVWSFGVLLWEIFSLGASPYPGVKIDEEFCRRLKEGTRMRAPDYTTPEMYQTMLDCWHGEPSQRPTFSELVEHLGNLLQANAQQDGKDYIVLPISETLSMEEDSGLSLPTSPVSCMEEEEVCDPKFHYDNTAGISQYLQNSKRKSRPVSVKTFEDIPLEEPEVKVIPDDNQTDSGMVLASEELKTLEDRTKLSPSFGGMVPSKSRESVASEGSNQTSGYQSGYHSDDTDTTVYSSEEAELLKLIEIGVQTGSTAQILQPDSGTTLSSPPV
Sequence of Vascular endothelial growth factor receptor 1 (P17948 whole entry, looked up): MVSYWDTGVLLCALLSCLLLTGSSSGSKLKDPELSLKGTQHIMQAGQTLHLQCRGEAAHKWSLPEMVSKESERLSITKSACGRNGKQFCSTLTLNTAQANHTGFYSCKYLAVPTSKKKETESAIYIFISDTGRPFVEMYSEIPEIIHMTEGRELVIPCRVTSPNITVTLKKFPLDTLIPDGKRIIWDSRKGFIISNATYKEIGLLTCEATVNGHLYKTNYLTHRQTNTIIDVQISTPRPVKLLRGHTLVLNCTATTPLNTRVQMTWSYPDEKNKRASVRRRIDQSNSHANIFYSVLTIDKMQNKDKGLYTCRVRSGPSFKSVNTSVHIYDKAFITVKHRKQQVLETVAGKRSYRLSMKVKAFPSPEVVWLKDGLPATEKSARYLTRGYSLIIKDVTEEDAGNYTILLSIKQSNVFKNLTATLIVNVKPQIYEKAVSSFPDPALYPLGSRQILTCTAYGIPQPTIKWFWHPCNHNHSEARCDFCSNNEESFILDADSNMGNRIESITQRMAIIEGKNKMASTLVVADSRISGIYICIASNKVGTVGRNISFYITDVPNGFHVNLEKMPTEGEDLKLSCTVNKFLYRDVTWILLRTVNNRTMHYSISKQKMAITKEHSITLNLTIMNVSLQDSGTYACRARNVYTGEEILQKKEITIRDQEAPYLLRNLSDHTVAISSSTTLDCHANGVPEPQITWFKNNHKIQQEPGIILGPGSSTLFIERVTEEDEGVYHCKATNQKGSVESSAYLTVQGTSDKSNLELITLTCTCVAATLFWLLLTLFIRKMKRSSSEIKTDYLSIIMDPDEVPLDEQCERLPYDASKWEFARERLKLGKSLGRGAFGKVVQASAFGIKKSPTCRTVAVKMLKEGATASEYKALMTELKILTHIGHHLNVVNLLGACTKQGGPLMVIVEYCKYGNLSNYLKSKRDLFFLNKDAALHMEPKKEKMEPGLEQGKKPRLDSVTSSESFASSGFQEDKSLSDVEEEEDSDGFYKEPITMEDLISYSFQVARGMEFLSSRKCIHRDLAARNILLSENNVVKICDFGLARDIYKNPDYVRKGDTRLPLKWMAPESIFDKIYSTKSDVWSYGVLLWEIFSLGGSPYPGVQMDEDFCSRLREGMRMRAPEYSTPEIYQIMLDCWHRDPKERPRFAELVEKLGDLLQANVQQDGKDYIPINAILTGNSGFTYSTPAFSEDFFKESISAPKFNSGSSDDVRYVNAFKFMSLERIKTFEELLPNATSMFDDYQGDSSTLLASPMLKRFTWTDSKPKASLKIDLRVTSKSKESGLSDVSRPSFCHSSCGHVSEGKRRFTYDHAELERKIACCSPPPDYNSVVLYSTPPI

Work on `Cn1ncc(NCc2ccncc2)c1C(=O)Nc1ccc(OC(F)(F)F)cc1` yielded a pIC50 [1] of 6.14, a pIC50 [2] of 7.19 and a pKi [3] of 6.77. The pIC50 [4] was 5.73 and the Papp [5] was 5.42 ×10⁻⁶ cm/s.
